Measured values from ChEMBL document CHEMBL2016501, “Design, synthesis, and biological activity of novel 1,4-disubstituted piperidine/piperazine derivatives as CCR5 antagonist-based HIV-1 entry inhibitors” (Bioorg Med Chem Lett, 2012).

How the values were obtained:
[1] = system: Human immunodeficiency virus 1; assay: Antiviral against R5 tropic HIV1 Bal infected in human CEMx174 5.25M7 cells assessed as inhibition of viral replication; type: functional, organism-based; conditions: Human immunodeficiency virus 1, Bal
[2] = Cytotoxicity against human CEMx174 5.25M7; conditions: CEMx174 5.25M7 cells
[3] = Selectivity ratio of CC50 for human CEMx174 5.25M7 cells to IC50 for HIV1 Bal infected in CEMx174 5.25M7 cells; type: ADME, cell-based; conditions: read-out: Ratio CC50/IC50
[4] = Terminal half life in Sprague-Dawley rat at 1 mg/kg, iv; type: ADME, organism-based; set-up: dose 1 mg/kg, route intravenous; conditions: in vivo, read-out: beta t1/2 (converted)
[5] = Terminal half life in Sprague-Dawley rat at 5 mg/kg, po; type: ADME, organism-based; set-up: dose 5 mg/kg, route oral; conditions: in vivo, read-out: beta t1/2 (converted)
[6] = AUC (0 to 12 hrs) in Sprague-Dawley rat at 1 mg/kg, iv; type: ADME, organism-based; set-up: time < 12 hr, dose 1 mg/kg, route intravenous; conditions: plasma
[7] = AUC (0 to 12 hrs) in Sprague-Dawley rat at 5 mg/kg, po; type: ADME, organism-based; set-up: time < 12 hr, dose 5 mg/kg, route oral; conditions: plasma
[8] = Oral bioavailability in Sprague-Dawley rat at 5 mg/kg; type: ADME, organism-based; conditions: in vivo
[9] = molecular target: Voltage-gated inwardly rectifying potassium channel KCNH2 (Homo sapiens, UniProt Q12809); assay: Inhibition of human Erg expressed in HEK293 cells by whole cell patch clamp assay; type: cell-based
hERG = assay: Selectivity ratio of IC50 for human Erg to IC50 for HIV1 Bal infected in human CEMx174 5.25 cells; type: ADME, cell-based; conditions: HIV1 Bal infected CEMx174 5.25 cells, read-out: Ratio IC50
[10] = Solubility of the compound in 10 mM phosphate sodium buffer at pH 7.4 at 25 degC; type: physicochemical
[11] = system: Human immunodeficiency virus 1; assay: Antiviral activity against HIV1; type: functional, organism-based

Voltage-gated inwardly rectifying potassium channel KCNH2, sequence (Q12809 whole entry): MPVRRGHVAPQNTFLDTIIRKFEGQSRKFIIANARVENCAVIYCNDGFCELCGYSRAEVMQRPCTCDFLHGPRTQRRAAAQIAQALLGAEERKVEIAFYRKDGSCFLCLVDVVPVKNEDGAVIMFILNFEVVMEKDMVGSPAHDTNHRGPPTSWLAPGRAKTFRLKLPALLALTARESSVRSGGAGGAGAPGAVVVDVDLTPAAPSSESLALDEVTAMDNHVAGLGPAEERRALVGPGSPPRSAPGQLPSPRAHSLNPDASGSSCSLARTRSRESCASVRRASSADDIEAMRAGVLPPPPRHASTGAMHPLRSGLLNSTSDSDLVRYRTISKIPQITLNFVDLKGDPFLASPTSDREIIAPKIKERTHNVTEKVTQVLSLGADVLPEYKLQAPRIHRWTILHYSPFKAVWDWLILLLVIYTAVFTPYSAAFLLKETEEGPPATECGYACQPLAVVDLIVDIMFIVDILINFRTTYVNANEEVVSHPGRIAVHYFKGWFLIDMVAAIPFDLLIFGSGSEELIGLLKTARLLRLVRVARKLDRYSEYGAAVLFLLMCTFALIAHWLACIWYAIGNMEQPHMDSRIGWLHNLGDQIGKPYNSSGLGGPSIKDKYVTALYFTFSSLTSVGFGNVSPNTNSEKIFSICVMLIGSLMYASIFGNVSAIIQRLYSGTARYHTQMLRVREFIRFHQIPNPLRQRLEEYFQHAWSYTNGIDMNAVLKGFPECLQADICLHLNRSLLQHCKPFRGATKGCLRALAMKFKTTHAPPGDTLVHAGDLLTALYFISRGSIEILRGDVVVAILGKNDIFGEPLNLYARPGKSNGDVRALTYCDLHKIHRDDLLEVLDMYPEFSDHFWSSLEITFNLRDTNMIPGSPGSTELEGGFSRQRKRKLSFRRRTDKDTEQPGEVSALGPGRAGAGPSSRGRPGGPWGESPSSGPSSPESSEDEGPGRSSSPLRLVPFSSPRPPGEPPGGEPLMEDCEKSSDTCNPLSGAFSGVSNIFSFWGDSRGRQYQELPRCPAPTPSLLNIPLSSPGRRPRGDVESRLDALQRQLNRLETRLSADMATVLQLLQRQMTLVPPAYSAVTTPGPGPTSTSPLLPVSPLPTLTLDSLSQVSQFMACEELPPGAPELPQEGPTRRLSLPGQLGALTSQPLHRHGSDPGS

Row | Compound | IC50 [1] | CC50 [2] | selectivity ratio [3] | other results
1 | CC(=O)N1CCC(C(=O)N(CCCN2CCC(CNC(=O)c3ccsc3)CC2)c2ccc(C)c(Cl)c2)CC1 | 87.5 nM | > 51900 nM | > 593 | –
2 | CC(=O)N1CCC(C(=O)N(CCCN2CCC(CNC(=O)c3cnccn3)CC2)c2ccc(C)c(Cl)c2)CC1 | 20.3 nM | > 52400 nM | > 2580 | –
3 | CC(=O)N1CCC(C(=O)N(CCCN2CCC(Oc3ccccc3)CC2)c2ccc(C)c(Cl)c2)CC1 | 52.3 nM | > 56600 nM | > 1080 | –
4 | CC(=O)N1CCC(C(=O)N(CCCN2CCC(CNc3cc(C)ccn3)CC2)c2ccc(C)c(Cl)c2)CC1 | 1830 nM | 17900 nM | 10 | –
5 | CCN(C(=O)Cc1ccccc1)C1CCN(CCCN(C(=O)C2CCN(C(C)=O)CC2)c2ccc(C)c(Cl)c2)CC1.Cl | 5.23 nM | 36200 nM | 6920 | solubility [10]: < 2000 µg/mL; EC50 [11]: 2.5 nM
6 | CC(=O)N1CCC(C(=O)N(CCCN2CC3CN(C(=O)c4c(C)ncnc4C)CC3C2)c2ccc(C)c(Cl)c2)CC1 (configuration not stated) | – | – | – | EC50 [11]: 2.7 nM
7 | CCN(Cc1ccccc1)C(=O)C1CCN(CCCN(C(=O)C2CCN(C(C)=O)CC2)c2ccc(C)c(Cl)c2)CC1 | 59.9 nM | 83800 nM | 1400 | –
8 | CC(=O)N1CCC(C(=O)N(CCCN2CCC(Cc3ccc(C(N)=O)cc3)CC2)c2ccc(C)c(Cl)c2)CC1.Cl | 2.48 nM | > 100000 nM | > 40300 | half-life [4]: 2.25 h; half-life [5]: 4.25 h; AUC(0-t) at 12 h [6]: 328 ng·h/mL; AUC(0-t) at 12 h [7]: 22.7 ng·h/mL; bioavailability [8]: 1.4%; solubility [10]: 2000 µg/mL
9 | CC(=O)N1CCC(C(=O)N(CCCN2CCC(CNc3ncccn3)CC2)c2ccc(C)c(Cl)c2)CC1 | 10.2 nM | > 55100 nM | > 5330 | –

Now from value to molecule, other results behind:

Row | IC50 [1] | Compound | CC50 [2] | selectivity ratio [3] | other results
10 | 56.3 nM | CC(=O)N1CCC(C(=O)N(CCCN2CCN(c3ccccn3)CC2)c2ccc(C)c(Cl)c2)CC1 | > 58300 nM | > 1040 | –
11 | 3.99 nM | CC(=O)N1CCC(C(=O)N(CCCN2CCN(Cc3ccc(S(C)(=O)=O)cc3)CC2)c2ccc(C)c(Cl)c2)CC1 | > 49300 nM | > 12100 | –
12 | 32.7 nM | CC(=O)N1CCC(C(=O)N(CCCN2CCN(Cc3cccnc3)CC2)c2ccc(C)c(Cl)c2)CC1 | > 56700 nM | > 1740 | –
13 | 147 nM | CC(=O)N1CCC(C(=O)N(CCCN2CCN(C(=O)c3ccccc3)CC2)c2ccc(C)c(Cl)c2)CC1 | 97800 nM | 663 | –
14 | 11.6 nM | CC(=O)N1CCC(C(=O)N(CCCN2CCN(Cc3cnc(Cl)s3)CC2)c2ccc(C)c(Cl)c2)CC1 | > 52400 nM | > 4510 | –
15 | 6.17 nM | CC(=O)N1CCC(C(=O)N(CCCN2CCN(Cc3ccc(F)cc3)CC2)c2ccc(C)c(Cl)c2)CC1.Cl | > 100000 nM | > 16200 | half-life [4]: 0.59 h; half-life [5]: 0.76 h; AUC(0-t) at 12 h [6]: 209 ng·h/mL; AUC(0-t) at 12 h [7]: 587 ng·h/mL; bioavailability [8]: 56%; IC50 [9]: 1820 nM; selectivity ratio (hERG): 295; solubility [10]: 25000 µg/mL
16 | 14.9 nM | CC(=O)N1CCC(C(=O)N(CCCN2CCN(Cc3ccccc3)CC2)c2ccc(C)c(Cl)c2)CC1 | 101000 nM | 6800 | –
17 | 1.85 nM | CC(=O)N1CCC(C(=O)N(CCCN2CCN(Cc3ccc(C(F)(F)F)cc3)CC2)c2ccc(C)c(Cl)c2)CC1 | 30500 nM | 16500 | –
18 | 9.07 nM | CC(=O)N1CCC(C(=O)N(CCCN2CCN(Cc3ccncc3)CC2)c2ccc(C)c(Cl)c2)CC1 | > 56700 nM | > 6150 | –
19 | 9.01 nM | CC(=O)N1CCC(C(=O)N(CCCN2CCN(Cc3ccc(C#N)cc3)CC2)c2ccc(C)c(Cl)c2)CC1 | > 100000 nM | > 11100 | –
20 | 3.63 nM | CC(=O)N1CCC(C(=O)N(CCCN2CCN(Cc3ccc(Cl)nc3)CC2)c2ccc(C)c(Cl)c2)CC1 | > 53100 nM | > 14500 | –
21 | 6.56 nM | CC(=O)N1CCC(C(=O)N(CCCN2CCN(Cc3ccc(Cl)cc3)CC2)c2ccc(C)c(Cl)c2)CC1 | 37600 nM | 5730 | –
